Assay results as given in patent US6716635B2, “Method for identifying regulators of protein-advanced glycation end product (protein-AGE) formation” (University of Kentucky Research Foundation, priority 2000, dated 2004).

Legend:
[1] = system: histone H1 (glycation by ADP-ribose); assay: AGE-fluorescence screening of glycation inhibitors, histone H1 + ADP-ribose, 96 well microtiter plates; format: biochemical, calf; conditions: for AGE-fluorescence (day 5): 5 days incubation; for % inhibition: AGE-fluorescence day 5; for AGE-fluorescence (day 0): value (spread); for suppression of AGE-fluorescence, primary screen outcome: test compound 5 mM or limit of solubility, pH 7.4, 37° C.; for inhibition of AGE-fluorescence, in words: 1 to 10 mM, 5 days
Method: A 96-well, microtiter plate was used to carry out 48 reactions in duplicate. […] A second pair of wells contains the reactants and the known glycation inhibitor aminoguanidine, and functions as a positive control. Histone H1 is commercially available, and can be prepared following the procedures set out in Johns, et al., Biochem J. 92:55-59(1964), which is incorporated by reference herein.
The reaction system is 50 mM potassium phosphate buffer, at pH 7.4 to which 1.5 mg/ml histone H1 and 1.0 mM ADP-ribose were added. Reaction volume was 300 ul. AGE-fluorescence was measured over time, with incubation at 37° C., at 355 nm (ex) and 405 nm (em). Upon comparison to the control, a test compound was deemed potentially positive if AGE-fluorescence was suppressed.
The histone H1 (1.5 mg/ml) was combined with 1 mM ADP-ribose, in […] KH2PO4 buffer (pH 7.4, 37° C., 0.015% NaN3 added, to inhibit microbial growth). This reaction mixture was added, to 96 well microtiter plates. Test compounds were added to the reaction mixture, at concentrations ranging from 1 to 10 mM, in reaction volumes of 300 ul. Texts were run in duplicate.
Accumulated protein damage was determined by measuring AGE-fluorescence, at wavelengths (λex=370 nm; λ em=440 nm. The fluorescence is suppressed in the presence of compounds with inhibitory activity. Assays were read on a conventional microtiter plate, with a filter setting that approached the above conditions (λ ex: 355 nm, λ […]: 405 nm), which is in the range of the broad excitation/emission maxima of AGE compounds.
The fluorescence was measured at the beginning, and after 5 days of incubation.
The known glycation inhibitor aminoguanidine was used as a control.

[2] = system: histone H1 (carbonylation); assay: histone H1 carbonylation by reducing sugars, and interference by compounds; format: biochemical; conditions: for carbonylation of histone H1, in words / amount of carbonylation: 1 mM sugar, pH 7.4, 7 days
Method: Both protein cross-linking and protein carbonylation are well established indicia of protein glycation. See Schacter, et al., Free Radic Biol Med. 17:429-437 (1994), incorporated by reference. In brief, following the assays described infra, formation of protein cross-linking was measured on 12% SDS-PAGE, followed by Coomassie and silver staining. Cross-linking was detectable with a high degree of sensitivity, when the reaction between ADP-ribose and histone H1 was carried out at pH 9.0. […] In FIG. 8, the abbreviations “M,” “D”, and “O” represent “monomer,” “dimer” and “oligomer,” respectively. Silver staining is the preferred way of determining the cross linking. Protein carbonlyation was determined via Western blotting. Specifically, AGE-BSA, which had been prepared by incubating BSA with 1.66M glucose, at pH 7.4 for 90 days at 37° C., was recognized after being derivatized with 2.4 dinitrophenlyhydrazine (“DNP”), when tested with antibodies specific for protein bound, DNP epitopes.
A series of experiments were carried out to compare different reducing sugars as glycation agents. In addition to ADP-ribose, ADP-glucose, D-ribose and D-glucose were tested. Briefly, histone H1 was combined with 1 mM of each sugar, and the mixture was incubated at pH 7.4. After 7 days of incubation, reaction aliquots were analyzed on 12% SDS-PACE gels, with silver staining. Results are presented in FIGS. 19A and B. In each of these, lane 1 is a control, with no sugar added, while lanes 2-5 show results using D-glucose, D-ribose, ADP-glucose, and ADP-ribose, respectively. […] The amount of carbonylation caused by ADP-ribose (0.82 mole/mole histone H1), and D-ribose (0.06 mole/mole histone H1) correlated with immunostaining.
In order to determine if the carbonylation of histone H1 by ADP-ribose involved an oxidative pathway, several compounds, known to interfere with glycoxidation of proteins by D-glucose were tested to determine if they interfered with this action by ADP-ribose. The compounds tested included 5 mM DTPA under argon, 5 mM aminoguanidine, 5 mM N^α acetyl L-cysteine, 5 mM mannitol, and 100 units/ml catalase.

Compound: COC(=O)[C@@H](N)CS [L-Cys-OMe, L-cysteine methylester]
- AGE-fluorescence (day 5) ([1]; compound 1 mM): 15 (0.1)
- % inhibition ([1]; compound 1 mM): 31%
- AGE-fluorescence (day 0) ([1]; compound 1 mM): 1.2 (0.1)
- AGE-fluorescence (day 5) ([1]; compound 5 mM): 12 (0.8)
- % inhibition ([1]; compound 5 mM): 46%
- AGE-fluorescence (day 0) ([1]; compound 5 mM): 1.3 (0.1)
- AGE-fluorescence (day 5) ([1]; compound 10 mM): 9.0 (0.2)
- % inhibition ([1]; compound 10 mM): 61%
- AGE-fluorescence (day 0) ([1]; compound 10 mM): 1.2 (0.1)
- suppression of AGE-fluorescence, primary screen outcome [1]: potential inhibitor

Compound: N[C@@H](CS)C(=O)NCC(=O)O [L-Cys-Gly, NH2-L-cys-gly-COOH]
- inhibition of AGE-fluorescence, in words [1]: increased AGE-fluorescence
- AGE-fluorescence (day 5) ([1]; compound 1 mM): 17
- % inhibition ([1]; compound 1 mM): 20%
- AGE-fluorescence (day 0) ([1]; compound 1 mM): 1.3 (0.3)
- AGE-fluorescence (day 5) ([1]; compound 5 mM): 26 (0.4)
- % inhibition ([1]; compound 5 mM): 0%
- AGE-fluorescence (day 0) ([1]; compound 5 mM): 1.2 (0.2)
- AGE-fluorescence (day 5) ([1]; compound 10 mM): 40 (0.0)
- % inhibition ([1]; compound 10 mM): 0%
- AGE-fluorescence (day 0) ([1]; compound 10 mM): 1.2 (0.1)

Compound: Nc1ncnc2c1ncn2[C@@H]1O[C@H](COP(=O)(O)OP(=O)(O)O[C@H]2O[C@H](CO)[C@@H](O)[C@H](O)[C@H]2O)[C@@H](O)[C@H]1O [ADP-glucose]
- carbonylation of histone H1, in words [2]: Neither D-glucose nor ADP-glucose caused significant carbonylation

Compound: O=C[C@H](O)[C@H](O)[C@H](O)CO [D-ribose]
- amount of carbonylation [2]: 0.06 mole/mole histone H1
- carbonylation of histone H1, in words [2]: a lesser amount

Compound: NCCS [Cysteamine]
- inhibition of AGE-fluorescence, in words [1]: somewhat better inhibition
- AGE-fluorescence (day 5) ([1]; compound 1 mM): 10 (0.6)
- % inhibition ([1]; compound 1 mM): 55%
- AGE-fluorescence (day 0) ([1]; compound 1 mM): 1.0 (0.1)
- AGE-fluorescence (day 5) ([1]; compound 5 mM): 9.0 (0.7)
- % inhibition ([1]; compound 5 mM): 60%
- AGE-fluorescence (day 0) ([1]; compound 5 mM): 1.1 (0.1)
- AGE-fluorescence (day 5) ([1]; compound 10 mM): 6.0 (0.3)
- % inhibition ([1]; compound 10 mM): 76%
- AGE-fluorescence (day 0) ([1]; compound 10 mM): 1.2 (0.2)

Compound: catalase
- interference with carbonylation of histone H1 by ADP-ribose ([2]; 100 units/ml): none of these interfered with the carbonylation

Compound: Nc1ncnc2c1ncn2[C@@H]1O[C@H](COP(=O)(O)OP(=O)(O)OC[C@H]2OC(O)[C@H](O)[C@@H]2O)[C@@H](O)[C@H]1O (stereo partly drawn) [ADP-ribose]
- amount of carbonylation [2]: 0.82 mole/mole histone H1
- carbonylation of histone H1, in words [2]: extensive carbonylation

Compound: O=C1CC(=O)NC(=S)N1 [2-Thiobarbituric acid]
- AGE-fluorescence (day 5) ([1]; compound 1 mM): 12 (0.4)
- % inhibition ([1]; compound 1 mM): 45%
- AGE-fluorescence (day 0) ([1]; compound 1 mM): 1.1 (0.1)
- AGE-fluorescence (day 5) ([1]; compound 5 mM): 5.5 (0.4)
- % inhibition ([1]; compound 5 mM): 78%
- AGE-fluorescence (day 0) ([1]; compound 5 mM): 1.2 (0.1)
- AGE-fluorescence (day 5) ([1]; compound 10 mM): 2.3 (0.0)
- % inhibition ([1]; compound 10 mM): 95%
- AGE-fluorescence (day 0) ([1]; compound 10 mM): 1.3 (0.1)

Compound: N[C@@H](CCC(=O)N[C@@H](CS)C(=O)NCC(=O)O)C(=O)O [GSH, glutathione]
- AGE-fluorescence (day 5) ([1]; compound 1 mM): 19 (0.3)
- % inhibition ([1]; compound 1 mM): 10%
- AGE-fluorescence (day 0) ([1]; compound 1 mM): 1.3 (0.0)
- AGE-fluorescence (day 5) ([1]; compound 5 mM): 17 (0.3)
- % inhibition ([1]; compound 5 mM): 20%
- AGE-fluorescence (day 0) ([1]; compound 5 mM): 1.1 (0.3)
- AGE-fluorescence (day 5) ([1]; compound 10 mM): 14 (0.5)
- % inhibition ([1]; compound 10 mM): 35%
- AGE-fluorescence (day 0) ([1]; compound 10 mM): 1.1 (0.0)

Compound: C[N+](C)(C)[C@@H](Cc1c[nH]c(=S)[nH]1)C(=O)[O-] [L-Ergothioneine]
- inhibition of AGE-fluorescence, in words [1]: somewhat better inhibition
- AGE-fluorescence (day 5) ([1]; compound 1 mM): 13 (0.0)
- % inhibition ([1]; compound 1 mM): 40%
- AGE-fluorescence (day 0) ([1]; compound 1 mM): 1.0 (0.1)
- AGE-fluorescence (day 5) ([1]; compound 5 mM): 9.3 (0.2)
- % inhibition ([1]; compound 5 mM): 59%
- AGE-fluorescence (day 0) ([1]; compound 5 mM): 1.2 (0.0)
- AGE-fluorescence (day 5) ([1]; compound 10 mM): 7.4 (0.1)
- % inhibition ([1]; compound 10 mM): 69%
- AGE-fluorescence (day 0) ([1]; compound 10 mM): 1.2 (0.1)

Compound: O=C(O)CN(CCN(CC(=O)O)CC(=O)O)CCN(CC(=O)O)CC(=O)O [DTPA]
- interference with carbonylation of histone H1 by ADP-ribose ([2]; 5 mM under argon): none of these interfered with the carbonylation

Compound: O=C[C@H](O)[C@@H](O)[C@H](O)[C@H](O)CO [D-glucose]
- carbonylation of histone H1, in words [2]: Neither D-glucose nor ADP-glucose caused significant carbonylation

Compound: N[C@@H](CS)C(=O)O [L-Cys, L-cysteine]
- AGE-fluorescence (day 5) ([1]; compound 1 mM): 14 (0.3)
- % inhibition ([1]; compound 1 mM): 36%
- AGE-fluorescence (day 0) ([1]; compound 1 mM): 1.2 (0.1)
- AGE-fluorescence (day 5) ([1]; compound 5 mM): 11 (0.2)
- % inhibition ([1]; compound 5 mM): 50%
- AGE-fluorescence (day 0) ([1]; compound 5 mM): 1.1 (0.1)
- AGE-fluorescence (day 5) ([1]; compound 10 mM): 9.0 (0.2)
- % inhibition ([1]; compound 10 mM): 61%
- AGE-fluorescence (day 0) ([1]; compound 10 mM): 1.2 (0.1)
- suppression of AGE-fluorescence, primary screen outcome [1]: potential inhibitor

Compound: CC(=O)N[C@@H](CS)C(=O)O [NAC, N α-acetyl-L-cysteine, reference compound]
- interference with carbonylation of histone H1 by ADP-ribose ([2]; compound 5 mM): none of these interfered with the carbonylation
- AGE-fluorescence (day 5) ([1]; compound 1 mM): 11 (0.6)
- % inhibition ([1]; compound 1 mM): 51%
- AGE-fluorescence (day 0) ([1]; compound 1 mM): 1.2 (0.2)
- AGE-fluorescence (day 5) ([1]; compound 5 mM): 10 (0.4)
- % inhibition ([1]; compound 5 mM): 55%
- AGE-fluorescence (day 0) ([1]; compound 5 mM): 1.0 (0.1)
- AGE-fluorescence (day 5) ([1]; compound 10 mM): 9.4 (0.6)
- % inhibition ([1]; compound 10 mM): 58%
- % inhibition ([1]; compound 10 mM, listed as N α-acetyl-L-cysteine): 61%
- AGE-fluorescence (day 0) ([1]; compound 10 mM): 1.1 (0.1)

Compound: NC(CCS)C(=O)O (racemic) [D,L-Homocysteine]
- inhibition of AGE-fluorescence, in words [1]: increased AGE-fluorescence
- AGE-fluorescence (day 5) ([1]; compound 1 mM): 16 (1.1)
- % inhibition ([1]; compound 1 mM): 26%
- AGE-fluorescence (day 0) ([1]; compound 1 mM): 1.3 (0.0)
- AGE-fluorescence (day 5) ([1]; compound 5 mM): 22 (0.1)
- % inhibition ([1]; compound 5 mM): 0%
- AGE-fluorescence (day 0) ([1]; compound 5 mM): 1.2 (0.2)
- AGE-fluorescence (day 5) ([1]; compound 10 mM): 27 (1.7)
- % inhibition ([1]; compound 10 mM): 0%
- AGE-fluorescence (day 0) ([1]; compound 10 mM): 1.1 (0.1)

Compound: OC[C@@H](O)[C@@H](O)[C@H](O)[C@H](O)CO [mannitol]
- interference with carbonylation of histone H1 by ADP-ribose ([2]; compound 5 mM): none of these interfered with the carbonylation

Compound: NCCC(=O)O [beta-alanine]
- suppression of AGE-fluorescence, primary screen outcome [1]: true negatives
